{"source": "paper PMC6936879", "about": "“Inhibiting the copper efflux system in microbes as a novel approach for developing antibiotics” (PLoS ONE, 2019)", "tested_on": "E. coli (BL21;DE3)", "test": "E. coli growth rate experiment (O.D. 600 nm) under copper stress", "format": "cell-based", "settings": "M9 medium, 37 °C, value after 14 h incubation, 5 μM Cu(II) chloride in assay (sentence does not say with or without Cu(II)), mean ± SE, n = 5", "method": "E. coli (BL21;DE3) growth rates were evaluated in 96-well microplates: in 200 μl of a poor medium comprising M9 medium. Incubation was for 16 h at 37°C with Copper(II) chloride (Sigma-Aldrich, St. Louis, MO, USA) at a concentration of 5 μM. Absorbance at 600 nm was measured every 30 min after stirring for 5 s in a 96-well plate reader (SPL Life Sciences, Gyeonggi, Korea). The buffer background was auto-subtracted. Each experiment was repeated five times under identical conditions.\nNext, E. coli were grown in M9 medium for 16 h, and their growth rate was evaluated in the absence and presence of Cu(II) in the medium. In each sample, a different peptide was introduced to the medium, with the kanamycin as a positive control. […] Growth rate values for all peptides at various concentrations after 14 h of incubation are presented in Fig 3 (the growth rate curves are presented in Figs E to F in S1 File).\nFig 3 Effect of test peptides on the E. coli growth rate. E. coli cultures were grown as described in Methods. The growth rate values after a 14 h incubation in the medium in the presence (gray lines) and absence (black lines) of Cu(II). Concentrations of the test peptides: A. 50 μM, B. 75 μM, C. 100 μM, and D. 125 μM. *p < 0.05, MEAN ± SE, n = 5, a comparison between the values in the presence and absence of Cu(II). #p < 0.05, MEAN ± SE, n = 5, in the presence of Cu(II) and comparing between values of a buffer and peptide. t-test was used for the statistic evaluation.", "data": [{"substance": "AKIQG [pep8]", "values": [{"measurement": "decrease in O.D. (600 nm)", "setting": "peptide 50 μM", "value": "45.5 ± 4.8", "unit": "%"}, {"measurement": "decrease in O.D. (600 nm)", "setting": "peptide 100 μM", "value": "63.6 ± 4.0", "unit": "%"}]}]}
